For one series, the system named is Daphnia magna. Kind of series: Water toxicity on Daphnia magna, OECD Guideline 202 part 1. Format: in vivo. To be noted: 48 h.
Series [1] relates to Ambrosia artemisiifolia (AMBEL). In words: Greenhouse test, imazamox SL formulation on Ambrosia. The class given is in vivo. To be noted: scored after 14 days; 10 g of imazamox/ha and 400 g of amine alkoxylate/ha. The protocol: (§1) The herbicidal activity was evaluated by awarding scores to the treated plants in comparison to the untreated control plants (Table 2). The evaluation scale ranges from 0% to 100% activity. 100% activity means the complete death at least of those parts of the plant that are above ground. Conversely, 0% activity means that there were no differences between treated and untreated plants.
(§2) The application rate was 10 g of imazamox/ha and 400 g of amine alkoxylate/ha. For comparison, a tallow fatty amine ethoxylate with 12 ethylene oxide units was used (liquid, approximately 100% content, molar mass approximately 730 g/mol (calculated from OH number), available commercially as Lutensol® FA12K from BASF SE).

The next series relates to Brachiarea multica. Kind of series: Field trial, glyphosate SL formulation with amine alkoxylate against weed. The class given is in vivo. To be noted: glyphosate-isopropylammonium SL spray solution with amine alkoxylate, visual estimate. The method, then: To this end, in each case 1.0 l of spray solution (see table 1) was sprayed per plot using a manual sprayer. 1.0 l of the spray solution contained 7.5 ml of an aqueous formulation of dissolved glyphosate-isopropyl-ammonium salt. To prepare this formulation, 100 ml of amine alkoxylate of example 2 were previously made up to 1.0 l with 46% strength glyphosate-isopropylammonium salt solution. Two, five and seven days after the application, the destruction of the weed was estimated visually in percent. Rain fell repeatedly in the days between application and assessment.

The nature of series [2]: Storage stability of glyphosate formulation with amine alkoxylate. Format: physicochemical. The following applies: temperatures of from 5 to +55° C. The source says:
Also, the formulation was rainfast.

Series [3] in a line: Gelling upon addition of amine alkoxylate to glyphosate solution. Format: physicochemical. To be noted: addition at 20° C.
The test system of series [4] is winter oilseed rape (cultivar Remy). Kind of series: Greenhouse test, glyphosate SL formulation on oilseed rape. Format: in vivo. To be noted: Table 2; 140 g of glyphosate/ha and 300 g of amine alkoxylate/ha. The protocol: A concentrated formulation comprising glyphosate isopropylammonium in solution in water and amine alkoxylate from Example 2 was diluted with deionized water and applied at a water application rate of 375 l/ha (140 g of glyphosate/ha and 300 g of amine alkoxylate/ha). The temperatures in the experimental period, which lasted for 3 to 4 weeks, were between 18-35° C. During this time, the experimental plants received optimum watering, with nutrients being supplied via the water used for watering. The herbicidal activity was evaluated by awarding scores to the treated plants in comparison to the untreated control plants (Table 2). […] Conversely, 0% activity means that there were no differences between treated and untreated plants. […] The application rate was 140 g of glyphosate/ha and 300 g of amine alkoxylate/ha.

Series [5] deals with Chenopodium album (CHEAL). In words: Greenhouse test, imazamox SL formulation on Chenopodium. Format: in vivo. The following applies: scored after 14 days; 10 g of imazamox/ha and 400 g of amine alkoxylate/ha. The method, then: as §1, §2

Consider 1 substance from patent publication US8618179B2, “Composition comprising a pesticide and an alkoxylate of 2-propylheptylamine” (BASF SE, priority 2010, dated 2013).

What is called EC50 is the concentration giving half of the maximal effect. In turn, “2-propylheptylamine ethoxylate [2-PHamine-7 EO]” registered a concentration giving a half-maximal response (EC50) with Daphnia magna of 60 µg/mL. Further, the “Activity [%] AMBEL” value in series [1] is 80%. The “Proportion [%] of weed destroyed” value in the series on Brachiarea multica (2 days after application) is 40%; with Brachiarea multica (5 days after application), 87.5%; in the series on Brachiarea multica (7 days after application) it was 90%. In series [2], the “Storage stability of the formulation” value was “storage-stable for at least two weeks”. Also, the “Gelling upon addition to the glyphosate solution” value in series [3] is recorded as “no gelling observed”. The “Activity [%] after 14 days” value in series [4] is recorded as 75%. Also, the “Activity [%] after 21 days” value in series [4] is given as 86%. Besides, the “Activity [%] CHEAL” value in series [5] was determined as 93%.
